# Source: patent US8168619B1, “Hormonal composition based on a progestational agent and an oestrogen and use thereof” (Laboratoire Theramex, priority 1999, dated 2012)
# Read-outs that look alike come from different tables or passages of the source.
# Key:
# menopausal women [1] = assay: Continuous combined estradiol + nomegestrol acetate, 6 months: genital bleeding; type: in vivo
# Procedure: (§1) A trial was carried out to study the effects on the endometrium of the continuous combined association of an oral estradiol dose equivalent to 1.5 mg and various doses of nomegestrol acetate.
# (§2) This consisted in the treatment for 6 consecutive months of 179 women who had been menopausal for at least 3 years, with 1.5 mg per day of estradiol combined continuously with 4 different doses of nomegestrol acetate: 5 mg/day (n=47); 2.5 mg/day (n=42); 1.25 mg/day (n=43) and 0.625 mg/day (n=47).
# (§3) The impact of these four associations on the endometrium was evaluated by recording the characteristics of genital bleeding, measuring the thickness of the endometrium by endovaginal echography before and at the end of the therapy, and by carrying out a biopsy of the endometrium before and at the end of the therapy.
# endometrium [2] = assay: Continuous combined estradiol + nomegestrol acetate, 6 months: biopsy of the endometrium; type: in vivo, women
# Procedure: as §1, §2, §3
# endometrial cells = assay: Sequential estrogen-progestative therapy: histological appearance of endometrium biopsy; type: in vivo, women; settings: for Number of mitoses (% of section in which mitoses were present), Glands: with 30 μg ethinyl estradiol, biopsy Day 17-20 of second cycle
# Procedure: (§4) Menopausal women, whether naturally or as the result of surgery, were subjected to a sequential estrogen-progestative therapy. From Day 1 to Day 12 they received 30 μg of ethinyl estradiol and then, from Day 13 to Day 22, the same dose of ethinyl estradiol associated with different doses of nomegestrol acetate or chlormadinone acetate. The doses were as follows:
# (§5) The number of women was between 2 and 11, depending on the group. There was then a therapeutic pause of 7 days followed by a second treatment cycle.
# (§6) The parameters taken into account were as follows: • the interval before periods commenced after the therapy had been interrupted, following the first and second treatment cycles; • the histological appearance of the endometrium recovered in a biopsy carried out between Day 17 and Day 20 of the second cycle.
# [3] = doses higher than those of the application, prolonged treatments; cited from earlier work
# menopausal women [4] = assay: Sequential estrogen-progestative therapy: interval before periods after therapy is interrupted; type: in vivo; settings: Day 13-22, with 30 μg ethinyl estradiol
# Procedure: as §4, §5, §6
# endometrium [5] = settings: cited from earlier work
# endometrium [6] = assay: Continuous combined estradiol + nomegestrol acetate, 6 months: endometrial thickness by endovaginal echography; type: in vivo, women; settings: 6 months continuous
# Procedure: as §1, §2, §3
# ovulation [7] = settings: NEUMANN publication; cited from earlier work
# [8] = NEUMANN publication; cited from earlier work
# [9] = Dose producing an adequate delay in the onset of periods (literature); type: in vivo; settings: NEUMANN; reference progestative norgestrel (=1)
# Description: (§7) 2) Apart from the above, it would be reasonable to think that the doses claimed should be based on data from clinical pharmacology and/or clinical data previously published and commonly accepted. Now, if the doses defined as in the PLUNKETT patents are considered, it is easy to see that in most cases the active doses published already a long time ago, i.e. before the said patents were filed (NEUMANN, 1977) or more recently (KUHL, 1996), are very coherent but only rarely lie within the dose ranges claimed in the patents in the name of PLUNKETT (Table 2).
# endometrium [10] = assay: Dose inducing transformation of the endometrium (literature); type: in vivo; settings: NEUMANN; reference progestative norgestrel (=1)
# Description: as §7
# [11] = NEUMANN publication; cited from earlier work; remark: listed apart in the source
# endometrium [12] = settings: NEUMANN publication; cited from earlier work
# ovulation [13] = assay: Dose inhibiting ovulation (literature); type: in vivo; settings: NEUMANN; reference progestative norgestrel (=1)
# Description: as §7
# [14] = Dose having a contraceptive effect (literature); type: in vivo; settings: NEUMANN; reference progestative norgestrel (=1)
# Description: as §7
# [15] = NOMAC 0.625 mg/day (n = 32) + estradiol (2 mg estradiol valerate)
# [16] = NOMAC 0.625 mg/day + estradiol (2 mg estradiol valerate)
# [17] = NOMAC 1.25 mg/day (n = 33) + estradiol (2 mg estradiol valerate)
# [18] = NOMAC 1.25 mg/day + estradiol (2 mg estradiol valerate)
# [19] = NOMAC 2.5 mg/day (n = 34) + estradiol (2 mg estradiol valerate)
# [20] = NOMAC 2.5 mg/day + estradiol (2 mg estradiol valerate)
# [21] = NOMAC 5 mg/day (n = 40) + estradiol (2 mg estradiol valerate)
# [22] = NOMAC 5 mg/day + estradiol (2 mg estradiol valerate)
compound,measurement,setting,value
"CC(=O)O[C@]1(C(C)=O)CC[C@H]2[C@@H]3C=C(C)C4=CC(=O)CC[C@@H]4[C@H]3CC[C@@]21C [Nomegestrol acetate, nomegestrol acetate]",Percentage of women who showed no genital bleeding at all throughout the therapy,menopausal women [1]; 0.625 mg/day + 1.5 mg/day estradiol,42.5%
same,Percentage of women who showed no genital bleeding at all throughout the therapy,menopausal women [1]; 1.25 mg/day + 1.5 mg/day estradiol,58.1%
same,Percentage of women who showed no genital bleeding at all throughout the therapy,menopausal women [1]; 2.5 mg/day + 1.5 mg/day estradiol,52.4%
same,Percentage of women who showed no genital bleeding at all throughout the therapy,menopausal women [1]; 5 mg/day + 1.5 mg/day estradiol,68.1%
same,"Absence of endometrium, number of women",endometrium [2]; [15],5
same,"Atrophic endometrium, number of women",endometrium [2]; [15],19
same,"Polyps, number of women",endometrium [2]; [15],0
same,"Secretory endometrium, number of women",endometrium [2]; [15],8
same,"Absence of endometrium, percentage",endometrium [2]; [16],(15.6) percentage
same,"Atrophic endometrium, percentage",endometrium [2]; [16],(59.4) percentage
same,"Secretory endometrium, percentage",endometrium [2]; [16],(25.0) percentage
same,"Absence of endometrium, number of women",endometrium [2]; [17],10
same,"Atrophic endometrium, number of women",endometrium [2]; [17],10
same,"Polyps, number of women",endometrium [2]; [17],1
same,"Secretory endometrium, number of women",endometrium [2]; [17],12
same,"Absence of endometrium, percentage",endometrium [2]; [18],(30.3) percentage
same,"Atrophic endometrium, percentage",endometrium [2]; [18],(30.3) percentage
same,"Polyps, percentage",endometrium [2]; [18],(3.0) percentage
same,"Secretory endometrium, percentage",endometrium [2]; [18],(36.4) percentage
same,"Absence of endometrium, number of women",endometrium [2]; [19],3
same,"Atrophic endometrium, number of women",endometrium [2]; [19],8
same,"Polyps, number of women",endometrium [2]; [19],1
same,"Secretory endometrium, number of women",endometrium [2]; [19],22
same,"Absence of endometrium, percentage",endometrium [2]; [20],(8.8) percentage
same,"Atrophic endometrium, percentage",endometrium [2]; [20],(23.5) percentage
same,"Polyps, percentage",endometrium [2]; [20],(2.9) percentage
same,"Secretory endometrium, percentage",endometrium [2]; [20],(64.7) percentage
same,"Absence of endometrium, number of women",endometrium [2]; [21],3
same,"Atrophic endometrium, number of women",endometrium [2]; [21],3
same,"Polyps, number of women",endometrium [2]; [21],0
same,"Secretory endometrium, number of women",endometrium [2]; [21],34
same,"Absence of endometrium, percentage",endometrium [2]; [22],(7.5) percentage
same,"Atrophic endometrium, percentage",endometrium [2]; [22],(7.5) percentage
same,"Secretory endometrium, percentage",endometrium [2]; [22],(85.0) percentage
same,"Number of mitoses (% of section in which mitoses were present), Glands",endometrial cells; 0.1 mg/day,50%
same,"Number of mitoses (% of section in which mitoses were present), Glands",endometrial cells; 0.25 mg/day,50%
same,"Number of mitoses (% of section in which mitoses were present), Glands",endometrial cells; 0.5 mg/day,0%
same,"Number of mitoses (% of section in which mitoses were present), Glands",endometrial cells; 1 mg/day,0%
same,"Number of mitoses (% of section in which mitoses were present), Glands",endometrial cells; 2 mg/day,0%
same,"Number of mitoses (% of section in which mitoses were present), Glands",endometrial cells; 2.5 mg/day,0%
same,"Number of mitoses (% of section in which mitoses were present), Glands",endometrial cells; 5 mg/day,0%
same,"Number of mitoses (% of section in which mitoses were present), Glands",endometrial cells; 10 mg/day,30%
same,Dose at which mitosis no longer takes place in glandular cells,endometrial cells; sequential therapy with 30 μg ethinyl estradiol,≥ 0.5 mg/day
same,"Tolerance: effect on lipids profile, tolerance to glucides, arterial pressure, coagulation factors",[3],"no effect on the lipids profile, the tolerance to glucides, the arterial pressure and the coagulation factors"
same,Interval before the appearance of periods after the therapy is discontinued,menopausal women [4]; 0.1 mg/day,-0.5 ± 1.5 days
same,Interval before the appearance of periods after the therapy is discontinued,menopausal women [4]; 0.25 mg/day,-0.5 ± 0.5 days
same,Interval before the appearance of periods after the therapy is discontinued,menopausal women [4]; 0.5 mg/day,1.5 ± 0.5 days
same,Interval before the appearance of periods after the therapy is discontinued,menopausal women [4]; 1.0 mg/day,2.7 ± 0.2 days
same,Interval before the appearance of periods after the therapy is discontinued,menopausal women [4]; 2.5 mg/day,3.2 ± 0.2 days
same,Interval before the appearance of periods after the therapy is discontinued,menopausal women [4]; 5 mg/day,4.3 ± 0.4 days
same,Interval before the appearance of periods after the therapy is discontinued,menopausal women [4]; 10 mg/day,3.8 ± 0.8 days
same,Endometrial hyperplasia,"endometrium [5]; 5 mg/day for 12 days per cycle, with various estrogens, 150 women over 1 year (THOMAS et al. 1993)",makes it possible to prevent endometrial hyperplasia
same,Endometrial hyperplasia,"endometrium [5]; 5 mg/day for 14 days per cycle, women treated with percutaneous estradiol (BERNARD et al. 1994)",absence of hyperplasia was confirmed
same,Mean thickness at the end of the treatment,endometrium [6]; [16],3.18 mm
same,Mean thickness increase under the treatment,endometrium [6]; [16],0.39 mm
same,Mean thickness at the end of the treatment,endometrium [6]; [18],4.05 mm
same,Mean thickness increase under the treatment,endometrium [6]; [18],1.12 mm
same,Mean thickness at the end of the treatment,endometrium [6]; [20],3.93 mm
same,Mean thickness increase under the treatment,endometrium [6]; [20],1.36 mm
same,Mean thickness at the end of the treatment,endometrium [6]; [22],3.83 mm
same,Mean thickness increase under the treatment,"endometrium [6]; NOMAC 5 mg/day + estradiol (2 mg estradiol valerate), listed as NOMAC",1.57 mm
same,Mean thickness increase under the treatment,"endometrium [6]; NOMAC 5 mg/day + estradiol (2 mg estradiol valerate), listed as nomegestrol acetate",1.56 mm
C#CC1(O)CC[C@H]2[C@@H]3CCC4=CC(=O)CC[C@@H]4[C@H]3CC[C@@]21CC (stereo partly shown) [Norgestrel],Dose necessary to inhibit ovulation (3),ovulation [7],100 µg/day
same,Dose necessary to have a contraceptive effect (4),[8],250 µg/day
same,"Dose ratio, Menstruation (2)",[9],1.0
same,"Dose ratio, Endometrium (1)",endometrium [10],1.0
same,"Dose necessary to produce an adequate delay in the onset of periods (2), Menstruation",[11],2000 µg/day
same,Dose necessary to induce transformation of the endometrium (1),endometrium [12],1200 µg/day
same,"Dose ratio, Ovulation (3)",ovulation [13],1.0
same,"Dose ratio, Contraception (4)",[14],1.0
